In patent publication US7647217B2, “Structure of the farnesoid X receptor ligand binding domain and methods of use therefor” (The Salk Institute for Biological Studies, priority 2002, dated 2010):

Columns and labels:
Assay in all cases: GAL4 chimeric NHR cross-reactivity assay
Assay type in all cases: cell-based
Settings in all cases: 10 μM
hVDR = biological target: T1, hVDR (Homo sapiens, UniProt P11473)
T1 construct: expressed in transfected cells; host or cells: CV-1 (monkey)
T1 sequence (P11473 127-423 limits assumed): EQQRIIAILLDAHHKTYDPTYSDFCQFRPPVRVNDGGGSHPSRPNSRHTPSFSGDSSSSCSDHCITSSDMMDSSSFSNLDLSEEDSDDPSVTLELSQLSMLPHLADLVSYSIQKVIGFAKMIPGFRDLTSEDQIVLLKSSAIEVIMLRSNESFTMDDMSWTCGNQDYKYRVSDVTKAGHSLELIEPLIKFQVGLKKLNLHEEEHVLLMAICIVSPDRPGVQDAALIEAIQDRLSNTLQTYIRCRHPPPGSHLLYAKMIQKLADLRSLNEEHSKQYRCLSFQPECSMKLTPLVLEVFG
Protocol: (§1) FIGS. 3A-3E collectively show the results of ligand activation of CV-1 cells co-transfected with a luciferase reporter gene with a variety of receptor expression constructs. […] FIGS. 3C-3E show the results of CV-1 cells transiently transfected with the indicated reporter constructs, treated with either DMSO or 10 μM of the compounds fexaramine (3C), fexarine (3D), fexarene (3E). Reporter activity was normalized to the internal control and the data plotted as fold activation relative to untreated cells. All transfections contained CMX-βgal as an internal control.
(§2) The expression plasmids pCMX, pCMX-LacZ, pCMX-mFXRFL, pCMX-hRXRFL, pCMX-GALDBD-rFXRLBD and other pCUX-GALDBD-NR LBDs (hRXRα, hPPARαγδ, mPXR, hPXR, hLXRα, HTRβ, hRARβ, mCAR, mERR3 and hVDR) have been described elsewhere (Blumberg et al. (1998). SXR, a novel steroid and xenobiotic-sensing nuclear receptor. Genes Dev. 12(20), 3195-205). The reporter plasmids pMH2004-TK-luc, pTKECRE*6-luc, pTKER-8*2-luc and pMRP-2-luc also have been described elsewhere. The hPLTP-luc promoter was kindly provided by Dr Dennis Dowhan and the hIBABP-luc promoter was created from a plasmid provided by Dr Philippe Besnard.
(§3) Cell-based transcriptional activation assays using chimeric nuclear hormone receptor (NHR) constructs were established to measure the selectivity of the compounds to FXR relative to other NHRs (Forman et al. (1995). Identification of a nuclear receptor that is activated by farnesol metabolites. Cell 81, 687-693). These assays used fusion proteins with the yeast GAL4 DNA binding domain connected to the ligand-binding domain (LBD) of NHRs. These constructs were co-transfected with a thymidine kinase C minimal promoter reporter vector containing four copies of the GAL4 binding site. Titration experiments were then performed using the identified compounds. […] Addition of RXR had no effect on the activation potential of fexaramine, fexarine, fexarene in this assay.
(§4) No activity was observed on other chimeric NHR constructs including hRXRα, hPPARαγδ, mPXR, hPXR, hLXRα, hTRβ, hRARβ, mCAR, mERR3 and hVDR (see FIGS. 3C-3E).

hTRβ = biological target: T2, hTRβ (Homo sapiens, UniProt P10828)
T2 construct: expressed in transfected cells; host or cells: CV-1 (monkey)
T2 sequence (P10828 217-461 limits assumed): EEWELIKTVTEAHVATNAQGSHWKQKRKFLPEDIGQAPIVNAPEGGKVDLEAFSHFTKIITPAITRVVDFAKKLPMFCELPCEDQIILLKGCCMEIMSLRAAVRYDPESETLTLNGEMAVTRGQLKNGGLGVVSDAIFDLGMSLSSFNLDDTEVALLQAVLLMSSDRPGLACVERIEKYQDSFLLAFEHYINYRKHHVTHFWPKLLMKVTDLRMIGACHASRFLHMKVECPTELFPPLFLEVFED
Protocol: as §1, §2, §3, §4

hRARβ = biological target: T3, hRARβ (Homo sapiens, UniProt P10826)
T3 construct: expressed in transfected cells; host or cells: CV-1 (monkey)
T3 sequence (P10826 183-417 limits assumed): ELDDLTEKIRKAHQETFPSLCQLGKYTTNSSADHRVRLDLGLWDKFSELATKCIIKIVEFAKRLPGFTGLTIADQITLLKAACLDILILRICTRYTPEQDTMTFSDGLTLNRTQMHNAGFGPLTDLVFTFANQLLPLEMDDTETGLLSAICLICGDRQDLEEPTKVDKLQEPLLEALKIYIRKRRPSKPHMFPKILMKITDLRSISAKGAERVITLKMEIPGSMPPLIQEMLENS
Protocol: as §1, §2, §3, §4

mCAR = biological target: T4, mCAR (Mus musculus, UniProt O35627)
T4 construct: expressed in transfected cells; host or cells: CV-1 (monkey)
T4 sequence (O35627 119-358 limits assumed): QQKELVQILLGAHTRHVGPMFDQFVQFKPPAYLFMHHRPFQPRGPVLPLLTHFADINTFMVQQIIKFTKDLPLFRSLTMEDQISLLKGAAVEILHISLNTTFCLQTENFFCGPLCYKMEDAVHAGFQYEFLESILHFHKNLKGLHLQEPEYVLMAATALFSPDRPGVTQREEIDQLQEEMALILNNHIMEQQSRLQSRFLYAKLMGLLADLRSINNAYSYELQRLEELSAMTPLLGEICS
Protocol: as §1, §2, §3, §4

hLXRα = biological target: T5, hLXRα (Homo sapiens, UniProt Q13133)
T5 construct: expressed in transfected cells; host or cells: CV-1 (monkey)
T5 sequence (Q13133 209-447 limits assumed): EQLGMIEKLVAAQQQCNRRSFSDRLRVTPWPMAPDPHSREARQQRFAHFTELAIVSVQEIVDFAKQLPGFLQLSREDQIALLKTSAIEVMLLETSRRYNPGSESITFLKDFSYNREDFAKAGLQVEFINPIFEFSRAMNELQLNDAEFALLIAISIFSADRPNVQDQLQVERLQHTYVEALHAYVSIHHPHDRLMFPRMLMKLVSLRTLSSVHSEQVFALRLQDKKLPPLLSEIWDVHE
Protocol: as §1, §2, §3, §4

COC(=O)/C=C/c1cccc(N(Cc2ccc(-c3ccc4c(c3)OCO4)cc2)C(=O)C2CCCCC2)c1 [fexarine]
No activity: activity on chimeric hVDR construct (hVDR) | activity on chimeric hTRβ construct (hTRβ) | activity on chimeric hRARβ construct (hRARβ) | activity on chimeric mCAR construct (mCAR) | activity on chimeric hLXRα construct (hLXRα)

COC(=O)/C=C/c1cccc(N(Cc2ccc(-c3ccc(N(C)C)cc3)cc2)C(=O)C2CCCCC2)c1 [fexaramine]
No activity: activity on chimeric hVDR construct (hVDR) | activity on chimeric hTRβ construct (hTRβ) | activity on chimeric hRARβ construct (hRARβ) | activity on chimeric mCAR construct (mCAR) | activity on chimeric hLXRα construct (hLXRα)

COC(=O)/C=C/c1cccc(N(Cc2ccc(/C=C/c3ccccc3)cc2)C(=O)C2CCCCC2)c1 [fexarene]
No activity: activity on chimeric hVDR construct (hVDR) | activity on chimeric hTRβ construct (hTRβ) | activity on chimeric hRARβ construct (hRARβ) | activity on chimeric mCAR construct (mCAR) | activity on chimeric hLXRα construct (hLXRα)
